Data published in patent US6903081B2, “Phosphoramidates and methods therefor” (Purdue Research Foundation, priority 2000, dated 2005).
“Also recorded” adds a separate entry of the source. Where two headings read alike, the source gives them in different places.

Tests used:
L1210 leukemia cells = assay: Growth inhibition in L1210 mouse leukemia cells; format: cell-based
Description: In an alternate embodiment of the invention, the analogous thymidine compounds were prepared (i.e., 3 where F═CH3). The thymidine phosphoramidate was activated by reduction of the nitrofuryl group with sodium dithionite in aqueous buffer/acetonitrile at 37° C., and the reaction was monitored by ^31P nmr. Within ten minutes the resonance for the phosphoramidate anion had disappeared and a new peak corresponding to thymidine-5′-phosphate appeared as the exclusive phosphorus-containing product by ^31P nmr. Nucleoside phosphoramidate 3 was then evaluated for its ability to inhibit proliferation of L1210 leukemia cells in vitro. Cells were exposed to drug for 2, 8, 24, and 48 hours; the results are summarized below:
Stock solutions of drugs were prepared in absolute ethanol, and serial dilutions of drug were prepared in ethanol. L1210 cells were suspended in Fisher's medium supplemented with 10% horse serum, 1% glutamine, and 1% antibiotic-antimycotic solution to give 10 mL volumes of cell suspension at a final density of 3-6×10^4 cells/mL. Appropriate volumes of the drug solution were transferred to the cell suspensions, and incubation was continued for 2, 8, 24, or 48 hours. The cells were spun down, resuspended in fresh drug-free medium and returned to the incubator. Final cell counts were determined 48 hours after the start of drug treatment. The data were analyzed by sigmoidal curve fit of cell count vs. Log (drug concentration) and the results expressed as the IC50 (the drug concentration that inhibits cell growth to 50% of control value).

pp60src SH2 domain = pp60src SH2 domain (Homo sapiens, UniProt P12931); assay: Binding to pp60src SH2 domain; conditions: read-out: binding affinity
Description: An alternate embodiment of the invention is illustrated in scheme 3: [drawing 3] This reaction is directed toward the synthesis of phosphoramidate 11A and involved the preparation of the nitrofuryl phosphoramidate of p-hydroxybenzoic acid 9A and coupling of this product with the benzyl amine 10A, prepared from 5-acetylsalicylamide. Briefly, to synthesize the benzoic acid derivative 9A, p-Hydroxybenzoic acid was converted to its allyl ester 6A by reaction of the potassium salt with allylbromide. The allyl ester was reacted with POCl3 and the intermediate phosphoryl dichloride was treated with methyl chlorobutylamine in the presence of triethylamine to give phosphoramidic chloride 7A. Reaction of 7A with the lithium salt of 5-nitro-2-hydroxymethylfuran afforded the phosphoramidate 8A. Deprotection of the allyl ester was accomplished by reaction with Pd(Ph3P)4/sodium p-toluenesulfinate to give the benzoic acid phosphoramidate 9A. Reaction of 9A with isobutyl chloroformate in the presence of triethylamine, followed by addition of benzylamine 10A afforded the desired peptidomimetic prodrug 11A. In order to confirm that the activation chemistry of 11A to 12A would proceed as expected, 11A was reduced with sodium dithionite in ethanol/aqueous buffer and the reaction monitored by ^31P nmr. […]

[1] = test system: luciferase expression in J77 cells transfected with NF-AT-Luciferase plasmid; assay: Luciferase inhibition on transfected J77 cells; format: cell-based; conditions: read-out: IC50 luciferase inhibition
Description: J77 cells (2×10^7 cells in […] of FBS-free RPMI media) were transfected with […] of NF-AT-Luciferase plasmid. Cells were transferred to a flask with 10 mL of complete RPMI media and incubated for 24 hours. After this time cells were spun down, resuspended in 12 mL of complete RPMI media and divided into a 6-well well plate (2 mL/well). Drug stock solutions in DMSO were made and each well was treated with a different concentration and incubated for 2 hours. Each well was then treated with 10 mL of a mixture of 1.25 mg of PMA and 9 mg of Ionomycin in 115 mL of FBS-free RPMI, followed by the addition of 2 mg of Anti-CD3. Cells were incubated for 6 hours, spun down, washed with PBS, lysed for 15 min and centrifuged. Supernantant was collected and stored at −78° C. overnight. Luciferase activity was measured using a luminometer with a mixture of 50 mL of luciferase substrate and 10 ml of supernatant.

L1210 cells = assay: Tritium assay in L1210 cells; format: cell-based; conditions: Mus musculus
Description: (§1) Stock solutions of drugs were prepared in absolute ethanol. L1210 cells were suspended in fisher's medium, LM and LM (TK-) cells were suspended in minimum essential medium to give a final density of 11.24×10^6 cells/mL. Aliquots ([…]) of the cell suspension were placed in ependorf tubes, followed by addition of 5 mL of drug solution and incubated at 37° C. for 2 hours. Tritium release reaction was started by the addition of […] of serum free media containing 1 mCi [5-^3H]dCyt in a 0.5 mM dCyt solution. Allowed reaction to incubate for 60 min in a shaking water bath at 37° C. Reaction was terminated by transferring 100 mL of the reaction mixture to ependorf tubes containing 100 mL of a 20% mixture of activated charcoal suspension in 4% aqueous perchloric acid. Tubes were vigorously vortexed, then centrifuged in a microfuge. Radioactivity of […] of the supernatant was measured using a scintillation spectrometer. The data were analyzed by sigmoidal curve fit of CMP vs. Log (drug concentration) and the results expressed as the IC50 (the drug concentration that inhibits cell growth to 50% of control value).

LM cells = assay: Tritium assay in LM cells; format: cell-based; conditions: read-out: IC50 tritium assay
Description: as §1

LM(TK-) cells = assay: Tritium assay in LM(TK-) cells; format: cell-based; conditions: L-M(TK-), read-out: IC50 tritium assay
Description: as §1

[2] = Chemical activation by sodium dithionite reduction monitored by 31P nmr; format: physicochemical; conditions: sodium dithionite in aqueous buffer/acetonitrile at 37° C.
[3] = Mus musculus, L1210, 2 h, read-out: L1210 IC50, drug exposure 2 hr, comparison of compound 5 with compound 3
[4] = Mus musculus, L1210, 8 h, read-out: L1210 IC50, drug exposure 8 hr, comparison of compound 5 with compound 3
[5] = Mus musculus, L1210, 24 h, read-out: L1210 IC50, drug exposure 24 hr, comparison of compound 5 with compound 3
[6] = Mus musculus, L1210, 48 h, drug exposure 48 h, final cell counts 48 hours after start of drug treatment
[7] = Mus musculus, L1210, 48 h, read-out: L1210 IC50, drug exposure 48 hr, comparison of compound 5 with compound 3
[8] = Mus musculus, L1210, drug exposure 2 h, final cell counts 48 hours after start of drug treatment
[9] = Mus musculus, L1210, drug exposure 8 h, final cell counts 48 hours after start of drug treatment
[10] = Mus musculus, L1210, drug exposure 24 h, final cell counts 48 hours after start of drug treatment

pp60src SH2 domain, sequence (P12931 151-248 limits assumed): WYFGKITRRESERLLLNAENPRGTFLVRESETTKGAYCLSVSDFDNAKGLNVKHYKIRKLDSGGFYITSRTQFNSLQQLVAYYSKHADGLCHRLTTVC

CN(CCCCCl)P(=O)(OCC1=CC(=O)c2ccccc2C1=O)OC[C@H]1O[C@@H](n2cc(F)c(=O)[nH]c2=O)CC1O (some centres unmarked) [Compound 5, 5-Fluoro-2′-deoxyuridyl 2-(1,4-napthoquinonyl)methyl N-methyl-N-(4-chlorobutyl)phosphoramidate]
inhibition of L1210 cell proliferation, in words (L1210 leukemia cells): highly potent inhibitors | potency relative to compound 3 (L1210 leukemia cells; L1210 cell proliferation): approximately 3 fold | IC50 (L1210 leukemia cells; [3]): 0.044 µM | IC50 (L1210 leukemia cells; [4]): 0.016 µM | IC50 (L1210 leukemia cells; [5]): 0.0031 µM | IC50 (L1210 leukemia cells; [6]): 0.00063 µM | IC50 (L1210 leukemia cells; [7]): 0.00063 µM | IC50 (L1210 leukemia cells; [8]): 0.044 µM | IC50 (L1210 leukemia cells; [9]): 0.016 µM | IC50 (L1210 leukemia cells; [10]): 0.0031 µM

CC(NC(=O)c1ccc(OP(=O)(O)O)cc1)c1ccc(OCC2CCCCC2)c(C(N)=O)c1 (centres unmarked) [Compound 12A]
Kd (pp60src SH2 domain): 5.6 µM

COC1=CC(=O)c2c(cc(COP(=O)(OCC3OC(n4cc(F)c(=O)[nH]c4=O)CC3O)N(C)CCCCCl)n2C)C1=O (centres unmarked) [Compound 6, 5-Fluoro-2′-deoxyuridyl 2-(5-methoxy-N-methylindoloquinone)methyl N-methyl-N-(4-chlorobutyl)phosphoramidate]
IC50 (L1210 leukemia cells; [6]): 0.0016 µM | IC50 (L1210 leukemia cells; [8]): 0.034 µM | IC50 (L1210 leukemia cells; [9]): 0.048 µM | IC50 (L1210 leukemia cells; [10]): 0.0048 µM

CC(NC(=O)Cc1ccc(OP(=O)(OCc2ccc([N+](=O)[O-])o2)N(C)CCCCCl)cc1)c1ccc(OCC2CCCCC2)c(C(N)=O)c1 (centres unmarked) [Compound 40]
IC50 [1]: 3.4 µM

O=c1[nH]c(=O)n([C@H]2C[C@H](O)[C@@H](CO)O2)cc1F [FUdR, 5-Fluoro-2′-deoxyuridine, reference compound]
IC50 (L1210 leukemia cells; Mus musculus, L1210, 48 h, drug exposure 48 h, final cell counts 48 hours after start of drug treatment, read-out: IC50): 0.00064 µM | IC50 (L1210 leukemia cells; Mus musculus, L1210, drug exposure 2 h, final cell counts 48 hours after start of drug treatment, read-out: IC50): 0.045 µM | IC50 (L1210 leukemia cells; Mus musculus, L1210, drug exposure 8 h, final cell counts 48 hours after start of drug treatment, read-out: IC50): 0.023 µM | IC50 (L1210 leukemia cells; Mus musculus, L1210, drug exposure 24 h, final cell counts 48 hours after start of drug treatment, read-out: IC50): 0.0041 µM | IC50 (L1210 cells; L1210, drug 2 hours at 37° C., then [5-3H]dCyt 60 min, read-out: IC50 tritium assay): 0.008 µM | IC50 (LM cells; LM, drug 2 hours at 37° C., then [5-3H]dCyt 60 min): 0.059 µM | IC50 (LM(TK-) cells; LM(TK-), drug 2 hours at 37° C., then [5-3H]dCyt 60 min): 3.67 µM

CC(NC(=O)c1ccc(OP(=O)(OCC2=CC(=O)c3ccccc3C2=O)N(C)CCCCCl)cc1)c1ccc(OCC2CCCCC2)c(C(N)=O)c1 (centres unmarked) [Compound 37]
IC50 [1]: 4.2 µM

CC(NC(=O)c1ccc(OP(=O)(OCc2ccc([N+](=O)[O-])o2)N(C)CCCCCl)cc1)c1ccc(OCC2CCCCC2)c(C(N)=O)c1 (centres unmarked) [Compound 35]
IC50 [1]: 34.1 µM

CC(NC(=O)c1ccc(NP(=O)(OCc2ccc([N+](=O)[O-])o2)N(C)CCCCCl)cc1)c1ccc(OCC2CCCCC2)c(C(N)=O)c1 (centres unmarked) [Compound 42]
IC50 ([1]; transfected J77 cells, drug 2 hours, then PMA/Ionomycin/Anti-CD3 for 6 hours): 15 µM

Cc1cn([C@H]2C[C@H](O)[C@@H](COP(N)(=O)O)O2)c(=O)[nH]c1=O [thymidine phosphoramidate]
time until the phosphoramidate anion resonance had disappeared (thymidine-5′-phosphate exclusive product) [2]: ten

CN(CCCCCl)P(=O)(OCc1ccc([N+](=O)[O-])o1)OC[C@H]1O[C@@H](n2cc(F)c(=O)[nH]c2=O)CC1O (some centres unmarked) [Compound 3, 5-Fluoro-2′-deoxyuridyl 5-nitrofurfuryl N-methyl-N-(4-chlorobutyl)phosphoramidate]
inhibition of L1210 cell proliferation, in words (L1210 leukemia cells): significantly more potent than the analogous bromoethyl compound; also recorded: highly potent inhibitors | IC50 (L1210 leukemia cells; Mus musculus, L1210, 2 h, read-out: L1210 IC50, drug exposure 2 hr): 0.112 µM | IC50 (L1210 leukemia cells; [3]): 0.116 µM | IC50 (L1210 leukemia cells; Mus musculus, L1210, 8 h, read-out: L1210 IC50, drug exposure 8 hr): 0.04 µM | IC50 (L1210 leukemia cells; [4]): 0.047 µM | IC50 (L1210 leukemia cells; Mus musculus, L1210, 24 h, read-out: L1210 IC50, drug exposure 24 hr): 0.006 µM | IC50 (L1210 leukemia cells; [5]): 0.0072 µM | IC50 (L1210 leukemia cells; [6]): 0.0023 µM | IC50 (L1210 leukemia cells; Mus musculus, L1210, 48 h, read-out: L1210 IC50, drug exposure 48 hr): 0.002 µM | IC50 (L1210 leukemia cells; [7]): 0.0023 µM | IC50 (L1210 leukemia cells; [8]): 0.116 µM | IC50 (L1210 leukemia cells; [9]): 0.047 µM | IC50 (L1210 leukemia cells; [10]): 0.0072 µM | IC50 (L1210 cells; L1210, read-out: IC50 tritium assay): 0.046 µM | IC50 (LM cells): 0.711 µM | IC50 (LM(TK-) cells): 1.28 µM

O=c1[nH]cc(F)c(=O)[nH]1 [Compound 5-FU, reference compound]
IC50 (L1210 leukemia cells; drug exposure 2 h, final cell counts 48 hours after start of drug treatment, read-out: IC50): 2.5 µM | IC50 (L1210 leukemia cells; drug exposure 2 hr, comparison of compound 5 with compound 3, read-out: L1210 IC50): 2.5 µM | IC50 (L1210 leukemia cells; drug exposure 2 hr, read-out: L1210 IC50): 2.74 µM | IC50 (L1210 leukemia cells; drug exposure 8 h, final cell counts 48 hours after start of drug treatment, read-out: IC50): 1.01 µM | IC50 (L1210 leukemia cells; drug exposure 8 hr, comparison of compound 5 with compound 3, read-out: L1210 IC50): 1.01 µM | IC50 (L1210 leukemia cells; drug exposure 8 hr, read-out: L1210 IC50): 1.39 µM | IC50 (L1210 leukemia cells; drug exposure 24 h, final cell counts 48 hours after start of drug treatment, read-out: IC50): 0.36 µM | IC50 (L1210 leukemia cells; drug exposure 24 hr, comparison of compound 5 with compound 3, read-out: L1210 IC50): 0.36 µM | IC50 (L1210 leukemia cells; drug exposure 24 hr, read-out: L1210 IC50): 0.495 µM | IC50 (L1210 leukemia cells; drug exposure 48 h, final cell counts 48 hours after start of drug treatment, read-out: IC50): 0.2 µM | IC50 (L1210 leukemia cells; drug exposure 48 hr, comparison of compound 5 with compound 3, read-out: L1210 IC50): 0.2 µM | IC50 (L1210 leukemia cells; drug exposure 48 hr, read-out: L1210 IC50): 0.265 µM

CC(=O)NC(Cc1ccc(OP(=O)(OCc2ccc([N+](=O)[O-])o2)N(C)CCCCCl)cc1)C(=O)NC(C)c1ccc(OCC2CCCCC2)c(C(N)=O)c1 (centres unmarked) [Compound 38]
IC50 [1]: 5.6 µM
